Measured values taken from publication PMC8802628, “Selective activation of PFKL suppresses the phagocytic oxidative burst” (Cell, 2021).

Tests used:
IL-1β = assay: GSDMD-dependent IL-1β release from monocytes; assay type: cell-based, human; conditions: nigericin or poly(dA-dT)
Protocol: (§1) Primary human monocytes were primed with 1 μg/mL ultrapure LPS and 1μg/mL Pam3CSK4 for 3 h. THP-1 cells were primed with 1 μg/mL Pam3CSK4 for 4 h. Primed cells (1 × 10^5) were treated for 1 h with DMSO vehicle, 5 μM LDC7559 (unless indicated otherwise), 10 μM MCC950, or 50 μM VX765, and then for 1 h with 10 μg/mL nigericin, or 25 μg/mL LPS (electroporated using the NEON electroporation system; ThermoFisher Scientific), or they were transfected over 3 h with 1 μg/mL poly(dA-dT) using lipofectamine 2000 (0.5 μL/well).
(§2) LDH released into the culture medium was measured 1-3 h post-activation using a CellTox Green Cytotoxicity assay (Promega). IL-1β secretion was measured using a MSD Cytokine Assay, 96-well multi-array Tissue Culture Kit (Meso Scale Discovery). For immunoblotting, monocytes (2 × 10^6) were treated with 10-50 μM LCD7559 or 50 μM VX765 and electroporated with 25 μg/mL LPS using the NEON electroporation system. Cells were lysed after 1 h using lysis buffer (50 mM Tris pH 7.4, 150 mM NaCl, 10% glycerol, 1% NP-40, 1 mM MgCl and 1X Roche cOmplete protease inhibitor cocktail) and protein concentration was determined via BCA protein assay (Peirce). Antibodies for immunoblotting were GSDMD (L60, Cell Signaling Technologies), cleaved GSDMD-Asp275 (E7H9G, Cell Signaling Technologies) and GAPDH (14C10, Cell Signaling Technologies).

[1] = system: primary human monocytes and human monocytic THP-1 cells; assay: GSDMD-dependent pyroptosis, LDH release; assay type: cell-based; conditions: induced by nigericin, cytoplasmic LPS, or cytoplasmic poly(dA-dT)
Protocol: as §1, §2

MEK or ERK = assay: PMA-induced MEK/ERK activation in neutrophils (western blot); assay type: cell-based, human
Protocol: Figure S3. Chemoproteomic analysis of covalent crosslinking using photolabeling probe PALP1, related to Figure 2
(A) Volcano plots of the fold change in peptides detected after afﬁnity pull-downs using PALP1 and PALP6. P values were calculated by Student’s t test across
three replicates. (B and C) Spectral counts of all PFKL (B) or TBB4B (C) peptides across replicates (left) or with individual peptides distinguished by color (right). (D)
Activity of recombinant NAMPT. Bars represent the mean ± s.d. of 3 independent experiments. (E) western blots of PMNs pretreated with 0.5 mM NA-11 or 1 mM
MEK1/2 inhibitor U0126 for 30 min, and then activated with 50 nM PMA for 30 min. Results are representative of 3 independent experiments.
(1 picture or pasted object on this page, not shown here)

PFKL = biological target: T1, PFKL (Homo sapiens, UniProt P17858); assay: Thermal shift of PFKL by immunoblotting in THP-1 lysates; assay type: binding
T1 construct: endogenous in cells; host or cells: THP-1 cell lysate
T1 sequence (P17858 2-780 limits assumed): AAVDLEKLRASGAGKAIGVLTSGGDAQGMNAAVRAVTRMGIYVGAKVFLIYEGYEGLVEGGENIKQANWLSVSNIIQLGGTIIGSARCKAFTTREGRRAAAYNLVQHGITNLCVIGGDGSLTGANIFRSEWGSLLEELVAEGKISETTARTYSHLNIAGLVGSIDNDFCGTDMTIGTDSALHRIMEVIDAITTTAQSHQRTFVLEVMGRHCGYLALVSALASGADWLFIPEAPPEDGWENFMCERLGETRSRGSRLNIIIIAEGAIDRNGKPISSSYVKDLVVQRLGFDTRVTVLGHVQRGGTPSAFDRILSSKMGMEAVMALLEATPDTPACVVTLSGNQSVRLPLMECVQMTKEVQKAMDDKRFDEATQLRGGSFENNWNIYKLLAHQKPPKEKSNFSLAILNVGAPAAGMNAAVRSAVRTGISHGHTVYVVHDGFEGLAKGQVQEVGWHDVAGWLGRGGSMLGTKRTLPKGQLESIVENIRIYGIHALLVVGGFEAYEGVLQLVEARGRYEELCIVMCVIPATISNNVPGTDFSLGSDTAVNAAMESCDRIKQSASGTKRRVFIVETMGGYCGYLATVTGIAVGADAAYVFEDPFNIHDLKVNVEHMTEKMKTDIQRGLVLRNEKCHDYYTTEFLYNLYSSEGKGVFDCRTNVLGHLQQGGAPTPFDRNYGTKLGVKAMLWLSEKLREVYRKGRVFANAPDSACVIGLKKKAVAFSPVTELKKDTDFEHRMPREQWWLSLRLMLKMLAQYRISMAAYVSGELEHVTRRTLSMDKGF
Protocol: Figure 2. Chemoproteomic analysis of the global interactors and specific targets of NA-11 (A) Dual chemoproteomic workflow. (B) TPP analysis of neutrophil lysates. Graph plots the ΔTm induced by NA-11 between 37°C and 65°C versus log2(fold change in the area under the melting curve from 44°C to 58°C). Each circle represents a different protein. Top hits with an upward shift in Tm are boxed. p values were determined by paired Student’s t test. (C) Percentage of PMNs undergoing PMA-induced NETosis. Bars show the mean ± SD of cells from three donors. (D) Structures of PALP1 and PALP6. […] Dot size indicates the p values from the affinity pull-downs (paired Student’s t test). […] (F) Western blots of THP-1 lysates heated for 3 min. Graph indicates PFKL band intensities quantified using ImageJ. Data are the mean ± SD of three independent experiments. See also Figures S2 and S3.
We validated the interaction of NA-11 with PFKL in THP-1 cells by immunoblotting PFKL in TPP samples (Figure 2F). […] PDE6δ sustains Ras signaling, which activates the Raf-MEK (mitogen-activated ERK kinase)-ERK (extracellular signal-regulated kinase) pathway ([Chandra et al., 2011]). […] Thus, NA-11 must not inhibit NETosis by compromising the MEK-ERK signaling cascade downstream of PDE6δ.

Row | Compound | GSDMD-dependent release of IL-1β (IL-1β) | GSDMD-dependent pyroptosis (LDH release) [1] | PMA-induced activation of MEK or ERK (MEK or ERK) | melting temperature of PFKL with compound (PFKL; 55°C ± 1°C without shift) [°C] | thermal shift in PFKL (PFKL; immunoblot) [°C]
1 | COc1ccccc1-c1cc2n(n1)Cc1ccc(NC(C)=O)cc1OC2 [LDC7559, reference compound] | occurred normally | did not alter GSDMD-dependent pyroptosis | – | – | –
2 | CC(=O)Nc1ccc2c(c1)OCc1cc(-c3ccccc3C#CCCCO)nn1C2 [NA-11] | – | – | did not perturb PMA-induced activation of MEK or ERK | 59 | 4
